Data set [1] is filed under the species Rattus norvegicus. The data set is described as follows: In vitro evaluation of efficacy of BAPN in isolated cardiac myocytes under normoxia condition. In kind it is functional, cell-based.
The species named for data set [2] is Rattus norvegicus. The data set is described as follows: Ratio in isolated cardiac myocytes under anoxic/oxic conditions. It is filed as functional, cell-based.
For data set [3], the species on record is Rattus norvegicus. Kind of data set: In vitro evaluation of efficacy of BAPN in isolated cardiac myocytes under anoxia condition. It is filed as functional, cell-based.
The species named for data set [4] is Rattus norvegicus. The data set is described as follows: In vitro evaluation of efficacy of BAPN in isolated cardiac myocytes under anoxic/oxic conditions. It is filed as functional, cell-based.
For a further data set, the species on record is Bos taurus. The data set is described as follows: Compound was evaluated for permeability index in cultured bovine endothelial cell monolayer system. In kind it is ADME. To be noted: cattle.

The values that follow come from ChEMBL document CHEMBL1127421, “The synthesis and in vitro evaluation of a 99mtechnetium-nitroimidazole complex based on a bis(amine-phenol) ligand: comparison to BMS-181321” (J Med Chem, 1994).

Turning to 99m Tc-BAPN [listing 1 of 2 here], the Retention stood at 38.2% in the data set listed under Rattus norvegicus [1] and 41.4% in the data set listed under Rattus norvegicus [3]. Also, the Ratio in the data set filed under Rattus norvegicus [2] is 1.08.
For 99m Tc-BMS 181321 [listing 1 of 2 here], the Ratio in the data set listed under Rattus norvegicus [4] stood at 3.03; in the data set listed under Rattus norvegicus [2], 3.03%. Moreover, in the data set listed under Rattus norvegicus [1], the Retention turned out to be 17.6%.
99m Tc-BAPN [listing 2 of 2 here]: the Permeability index in the data set listed under Bos taurus is listed as -0.25 Pi.
Substance 99m Tc-BMS 181321 [listing 2 of 2 here] gave a Permeability index in the data set listed under Bos taurus of 63.2 Pi.
